Assay results from US6642201B1, “Use of a dipeptide for stimulating repair processes” (priority 1998, dated 2003).
“And” between values parts separate entries of the source, which are not always exact repeats. Identical values can stand only once. Where a SMILES comes first, the peptide text is derived from it.

Legend:
white outbred male mice = test: Acute toxicity according to Kerber, single intramuscular administration; type: in vivo
Method: The study of the general toxic activity of dipeptide L-Lys-L-Glu was conducted in compliance with “The rules of pre-clinical estimation of safety of pharmacological Substances (GLP)”—
The purpose of the study consisted of the identification of tolerable toxic doses of the drug, estimation of stage and character of pathological alterations in various organs and systems of the organism and determination of correlation between toxic effect related to dose and duration of drug application.
The estimation of acute toxicity of dipeptide L-Lys-L-Glu was conducted according to Kerber. The study was carried out on 66 white outbred male mice with body weight 20-23 g, kept under standard regimen and fed with standard chow in the vivarium. The animals were divided at random into 6 equal groups of 11 mice each. The animals were exposed to single administration of the drug intramuscularly, 0.25 ml in doses 1 mg/kg, 2 mg/kg, 3 mg/kg, 4 mg/kg, 5 mg/kg, several thousand times exceeding therapeutic dose recommended for clinical trial. Control animals were administered sodium chloride solution in the same amount.

white outbred mice = test: Sub-acute toxicity, daily intramuscular administration for 90 days; type: in vivo; conditions: i.m. daily 0.3, 1, 3 mg/kg for 90 days; doses exceeding therapeutic 100-1000 times
Method: The study of sub-acute toxicity of L-Lys-L-Glu dipeptide is carried out on 60 white outbred mice with body weight […]. The animals of experimental groups were exposed daily to a single administration of the drug intramuscularly for 90 days in doses 1 mg/kg, 0.3 mg/kg, 3 mg/kg in 0.5 ml of sodium chloride solution. The animals of control groups were administered with sodium chloride solution in the same quantity.
During the whole period of Investigation the animals were under daily control. There was monitored animal behavior, as well as chow and water consumption, condition of hairy and mucous surfaces. The animals were weighed weekly. Morphological composition and properties of peripheral blood were studied prior to and an the 30th, 60th, and 90th day of drug administration. Biochemical and coagulologic indices of the blood were studied upon experiment completion.

rats = test: Chronic toxicity, daily intramuscular administration for 6 months; type: in vivo; conditions: i.m. daily 0.3, 1, 3 mg/kg for 6 months
Method: Chronic toxicity of L-Lys-L-Glu dipeptide obtained by the claimed method was studied during its longitudinal administration to rats with body weight […]. The animals of experimental groups were exposed daily to single intramuscular administration of the substance in doses 1 mg/kg, 0.3 mg/kg, 3 mg/kg in 0.5 ml of sodium chloride solution for 6 months. There was analyzed animal behavior, as well as chow and water consumption, condition of hairy and of mucous surfaces. The animals were weighed daily during the first 3 months of the experiment and then once a month. In 3 months after the onset of administration and upon completion of the experiment hematological and biochemical examinations functions of cardiovascular system, liver, pancreas. kidney, and adrenal gland were conducted and estimated. Upon the termination of the drug administration some animals were exposed to pathomorphological examination with the purpose of studying the state of various departments of the brain and spinal marrow, heart, aorta, lungs, liver, organs of endocrine and immune systems.

[1] = system: duodenum mucous membrane cells; test: Regeneration of the intestinal mucous membrane after radiation injury; type: in vivo, white male rats of the Wistar line; conditions: 8th day
Method: The work has been performed on 24 two-month-old white male rats of the Wistar line, weighing 90-100 grams. The following three groups of animals were researched;
2 group—control (irradiated animals);
3 group—irradiated animals injected with L-Lys-L-Glu dipeptide.
A general single γ—irradiation of 6 Gy, inducing “the syndrome of intestinal death”, was made by the cobalt apparatus GUB 20000, with the dose capacity of 200 rad/min.
L-Lys-L-Glu dipeptide was injected 24 hours after the irradiation—0.5 μkg in 0.5 ml of the […]—intraperitoneally during 5 days. The animals from the first and second groups received the […] by the same scheme.
The study of L-Lys-L-Glu dipeptide's action has been performed on the proximal section of the duodenum of irradiated animals. The animals were killed under nembutal narcosis (50 mg/kg on the 8th day after irradiation (beginning of the period of repair regeneration). Pieces of the duodenum were being preserved during 24 hours by Karnovsky for the electronic microscopy.
The ultra-structural research was conducted under the JEM-100S microscope (JEOL, Japan) at the ultra-thin microscopic sections prepared on the LKB-7A ultra-microtome (LKB, Sweden) and contrasted by uranilacetatc and lead cytrate.
Mast cells were selectively stained with 1% solution of toluidine blue (Fluka) in 0,5 M HCl, with pH—0.5 (8,9).
To reveal MTL-positive cells, were used rabbits' antibodies to metal-tioneins (1-2000).
Immunohistochemical identification of antigenes at the histological sections was made according to the main requirements to immune-peroxydase methods (10,11).
The quantity research was conducted with the help of the system of computer analysis of microscopic images—IMSTAR (Imstar, France)—the Morphostar-2 and Colquant-2 license applied software were employed, in accordance with the general principles of stereology in morphometry (12, 13). For each animal, the calculation of corresponding structures was made In ten visual eye sights by three sections of the studied organ. The mitotic index (1mit) and the index of proliferating ability (Ipcna) of the duodenum cells were defined in 10-15 standard sections of crypts, with the overall contents of not less than 1000 nuclei of enterocytes. The test area for finding serotonin-positive and mast cells covered not less than 3 mm^2. MML-positive cells were counted in 100 duodenum crypts.

[2] = system: sluggish-granulating wounds and phlegmon of the maxillofacial zone; test: Clinical complex treatment of pyo-inflammatory diseases of different localization; type: in vivo; conditions: patients, 1 μkg i.m. every day during ten days
Method: 1 μkg of the preparation was injected intramuscularly, every day during ten days. Effectiveness of the treatment was evaluated in dynamics according to the changes in activity of wound enzymes and time of healing.

[3] = irradiated rats 6 Gy, 0.5 μkg i.p. during 5 days, duodenum
[4] = irradiated rats 6 Gy, 0.5 μkg i.p. during 5 days, duodenum crypts

NCCCC[C@H](N)C(=O)N[C@@H](CCC(=O)O)C(=O)O [L-Lys-L-Glu dipeptide, L-lysil-L-glutamic acid] (H-Lys-Glu-OH)
toxic effects (white outbred male mice; doses several thousand times exceeding the therapeutic): does not induce any toxic effects
changes in general state, behavior, locomotor activity, integument, physiological discharges (white outbred male mice; mice, single i.m. 1-5 mg/kg, 72 hours and 14 days): No changes in the general state, behavior, locomotor activity, hairy or skin integument or physiological discharges
animal deaths (white outbred male mice; mice, single i.m. 1-5 mg/kg, in 72 hours and in 14 days): none of the animals in either of the groups died
side effects, sub-acute toxicity (white outbred mice): absence of side effects
side effects, chronic toxicity (rats; doses exceeding therapeutic 100-1000 times): absence of side effects
pathological changes (general state, blood indices, intrinsic organs, cardio-vascular, respiratory, liver and kidney functions) (rats; rats): no pathological changes
NMC/1 mm^2 (quantity of mast cells/1 square mm) [1, 3]: 24 ± 3 /1 mm^2
NMT/100 crypts (quantity of L-positive cells in 100 intestine crypts) [1, 3]: 102 ± 9 /100 crypts
Pser (volume density of serotonin-immunopositive cells) [1, 3]: 0.71 ± 0.09%
IPCNA (index of cell proliferative ability-PCNA) [1, 4]: 49.89% and 49.8 ± 0.7 %
Imit (mitotic index) [1, 4]: 4.7% and 4.7 ± 0.1%
MTL-positive cells in the crypts' base ([1]; irradiated rats): tendency to the increase of number and intensity of immune-staining
quantitative density of enterochromaffinn cells ([1]; irradiated rats): practically gets equal to that of healthy animals
activity of wound enzymes [2]: increased the activity of wound ferments in the first phase of the wound process
clearance of the wounds from necrotic tissues [2]: accelerate clearance of the wounds from necrotic tissues
treatment period [2]: reduction of the treatment period
